≈ marks a conversion by molar mass, not a printed value. Where a SMILES comes first, the peptide text is derived from it. Bridges are numbered along the chain shown (N, C = ends).
Key:
[1] = tested on: Klebsiella oxytoca; assay: Bactericidal activity against Klebsiella oxytoca DSM 5175 assessed as reduction in colony count and measured after 3 days by agar diffusion assay; format: functional; details: DSM 5175, 72 h, time 3 day
[2] = Stability of the compound assessed as carboxypeptidase Y mediated compound digestion by measuring Mycobacterium smegmatis DSM 43080 zone of inhibition incubated for 4 hrs by agar diffusion assay; format: ADME
[3] = tested on: Pseudomonas aeruginosa; assay: Antibacterial activity against Pseudomonas aeruginosa DSM 19880 assessed as reduction in bacterial growth measured after 3 days by broth microdilution method; format: functional; details: DSM 19880, 72 h, time 3 day
[4] = Thermal stability of compound in water incubated at 95 degreeC for 4 hrs by HPLC analysis; format: physicochemical; details: buffer
[5] = tested on: Enterobacter cloacae; assay: Bactericidal activity against Enterobacter cloacae DSM 30054 assessed as reduction in colony count and measured after 3 days by agar diffusion assay; format: functional; details: DSM 30054, 72 h, time 3 day
[6] = tested on: Mycolicibacterium phlei; assay: Bactericidal activity against Mycobacterium phlei DSM 43239 assessed as reduction in colony count and measured after 3 days by agar diffusion assay; format: functional; details: DSM 43239, 72 h, time 3 day
[7] = tested on: Mycolicibacterium phlei; assay: Antibacterial activity against Mycobacterium phlei DSM 43239 assessed as reduction in bacterial growth measured after 3 days by broth microdilution method; format: functional; details: DSM 43239, 72 h, time 3 day
[8] = tested on: Pseudomonas aeruginosa; assay: Bactericidal activity against Pseudomonas aeruginosa DSM 19880 assessed as reduction in colony count and measured after 3 days by agar diffusion assay; format: functional; details: DSM 19880, 72 h, time 3 day
[9] = tested on: Enterococcus faecium; assay: Antibacterial activity against Enterococcus faecium DSM 20477 assessed as reduction in bacterial growth measured after 3 days by broth microdilution method; format: functional; details: DSM 20477, 72 h, time 3 day
[10] = Stability of the compound assessed as carboxypeptidase Y mediated compound digestion pretreated at 95 degreeC for 4 hrs followed by protease addition incubated for 4 hrs by HPLC analysis; format: ADME
[11] = tested on: Staphylococcus aureus; assay: Bactericidal activity against Staphylococcus aureus DSM 20231 assessed as reduction in colony count and measured after 3 days by agar diffusion assay; format: functional; details: DSM 20231, 72 h, time 3 day
[12] = tested on: Mycolicibacterium smegmatis; assay: Bactericidal activity against Mycobacterium smegmatis DSM 43080 assessed as reduction in colony count and measured after 3 days by agar diffusion assay; format: functional; details: DSM 43080, 72 h, time 3 day
[13] = tested on: Staphylococcus aureus; assay: Antibacterial activity against Staphylococcus aureus DSM 20231 assessed as reduction in bacterial growth measured after 3 days by broth microdilution method; format: functional; details: DSM 20231, 72 h, time 3 day
[14] = tested on: Bacillus cereus; assay: Bactericidal activity against Bacillus cereus DSM 31 assessed as reduction in colony count and measured after 3 days by agar diffusion assay; format: functional; details: DSM 31, 72 h, time 3 day
[15] = tested on: Bacillus cereus; assay: Antibacterial activity against Bacillus cereus DSM 31 assessed as reduction in bacterial growth measured after 3 days by broth microdilution method; format: functional; details: DSM 31, 72 h, time 3 day
[16] = tested on: Klebsiella oxytoca; assay: Antibacterial activity against Klebsiella oxytoca DSM 5175 assessed as reduction in bacterial growth measured after 3 days by broth microdilution method; format: functional; details: DSM 5175, 72 h, time 3 day
[17] = tested on: Acinetobacter baumannii; assay: Antibacterial activity against Acinetobacter baumannii […] assessed as reduction in bacterial growth measured after 3 days by broth microdilution method; format: functional; details: 72 h, time 3 day
[18] = tested on: Enterobacter cloacae; assay: Antibacterial activity against Enterobacter cloacae DSM 30054 assessed as reduction in bacterial growth measured after 3 days by broth microdilution method; format: functional; details: DSM 30054, 72 h, time 3 day
[19] = tested on: Enterococcus faecium; assay: Bactericidal activity against Enterococcus faecium DSM 20477 assessed as reduction in colony count and measured after 3 days by agar diffusion assay; format: functional; details: DSM 20477, 72 h, time 3 day
[20] = tested on: Acinetobacter baumannii; assay: Bactericidal activity against Acinetobacter baumannii […] assessed as reduction in colony count and measured after 3 days by agar diffusion assay; format: functional; details: 72 h, time 3 day
[21] = tested on: Mycolicibacterium smegmatis; assay: Antibacterial activity against Mycobacterium smegmatis DSM 43080 assessed as reduction in bacterial growth measured after 3 days by broth microdilution method; format: functional; details: DSM 43080, 72 h, time 3 day
[22] = Thermal stability of compound in water assessed as antibacterial activity against Mycobacterium smegmatis DSM 43080 by measuring zone of inhibition incubated up to 8 hrs at 95 degreeC by agar diffusion assay; format: physicochemical; details: buffer
[23] = tested on: Mycolicibacterium smegmatis; assay: Antimycobacterial activity against Mycobacterium smegmatis DSM 43080 assessed as reduction in bacterial growth at late-exponential phase at 10 times of MIC measured up to 48 hrs by time killing assay; format: functional, organism-based; details: TDE = time-dependent effect
[24] = tested on: Mycolicibacterium smegmatis; assay: Antimycobacterial activity against Mycobacterium smegmatis DSM 43080 assessed as reduction in bacterial growth at mid-exponential phase at 10 times of MIC and measured up to 24 hrs by time killing assay; format: functional, organism-based; details: TDE = time-dependent effect

Row | Compound | MIC [3] | MBC [6] | MIC [7] | MBC [8] | MIC [9] | MBC [12] | MIC [13] | MIC [15] | MIC [16] | MIC [17] | MIC [18] | MBC [19] | MIC [21] | other results
1 | CC[C@H](C)[C@H](NC(=O)CNC(=O)[C@@H]1CC(=O)N[C@@H](CO)C(=O)N[C@@H](CCCCN)C(=O)N[C@@H](CCCCN)C(=O)N[C@@H](CO)C(=O)N[C@@H](CCCCN)C(=O)N2CCC[C@H]2C(=O)NCC(=O)N1)C(=O)N[C@@H](CCCNC(=N)N)C(=O)NCC(=O)N[C@@H](CCCCN)C(=O)NCC(=O)N[C@H](C(=O)N[C@@H](CCCNC(=N)N)C(=O)NCC(=O)O)C(C)C (SKKSKPGDGIRGKGVRG-OH; lactam N-8) | > 32 µg/mL | > 0.125 µg/mL | 0.03 µg/mL (≈ 0.0176 µM) | > 32 µg/mL | > 32 µg/mL | 0.5 µg/mL (≈ 0.293 µM) | > 32 µg/mL | > 32 µg/mL | > 32 µg/mL | > 32 µg/mL | > 32 µg/mL | > 32 µg/mL | 0.125 µg/mL (≈ 0.0731 µM) | MBC [1]: > 32 µg/mL; Stability [2]: Stable; Stability [4]: Stable; MBC [5]: > 32 µg/mL; Stability [10]: Stable; MBC [11]: > 32 µg/mL; MBC [14]: > 32 µg/mL; MBC [20]: > 32 µg/mL; Stability [22]: Stable; Activity [23]: Tde; Activity [24]: Tde
2 | NC[C@H]1O[C@H](O[C@H]2[C@H](O)[C@@H](O[C@H]3O[C@H](CO)[C@@H](O)[C@H](N)[C@H]3O)[C@H](N)C[C@@H]2N)[C@H](O)[C@@H](O)[C@@H]1O [KANAMYCIN] | > 32 µg/mL | 1 µg/mL (≈ 2.06 µM) | 1 µg/mL (≈ 2.06 µM) | > 32 µg/mL | > 32 µg/mL | 0.5 µg/mL (≈ 1.03 µM) | 2 µg/mL (≈ 4.13 µM) | 8 µg/mL (≈ 16.5 µM) | 2 µg/mL (≈ 4.13 µM) | 2 µg/mL (≈ 4.13 µM) | 2 µg/mL (≈ 4.13 µM) | > 32 µg/mL | 0.5 µg/mL (≈ 1.03 µM) | 
3 | CO[C@H]1/C=C/O[C@@]2(C)Oc3c(C)c(O)c4c(O)c(c(/C=N/N5CCN(C)CC5)c(O)c4c3C2=O)NC(=O)/C(C)=C\C=C\[C@H](C)[C@H](O)[C@@H](C)[C@@H](O)[C@@H](C)[C@H](OC(C)=O)[C@@H]1C [RIFAMPIN] | > 32 µg/mL | 0.06 µg/mL (≈ 0.0729 µM) | 0.03 µg/mL (≈ 0.0365 µM) | > 32 µg/mL | 8 µg/mL (≈ 9.72 µM) | 8 µg/mL (≈ 9.72 µM) | 0.004 µg/mL (≈ 0.00486 µM) | 0.25 µg/mL (≈ 0.304 µM) | 4 µg/mL (≈ 4.86 µM) | 1 µg/mL (≈ 1.22 µM) | 16 µg/mL (≈ 19.4 µM) |  | 8 µg/mL (≈ 9.72 µM) | 
